Source: ChEMBL document CHEMBL1124583, “New anticancer agents: chiral isomers of ethyl 5-amino-1,2-dihydro-2-methyl-3-phenylpyrido[3,4-b]pyrazine-7-car bamate ” (J Med Chem, 1989)

How the values were obtained:
L1210 [1] = experiment: Inhibitory activity against lymphoid leukemia L1210 cells; format: functional, cell-based; conditions: Mus musculus
P388 [2] = experiment: Increase in the life span of mice with P388 leukemia after the administration of the highest non toxic dose (2 mg/kg); format: functional, Mus musculus
L1210 [3] = experiment: Mitotic index (fraction of cells in mitosis divided by total cells) in cultured lymphoid leukemia L1210 cells; format: functional, Mus musculus
P388 [4] = experiment: Increase in the life span of mice with P388 leukemia after the administration of the highest non toxic dose (30 mg/kg); format: functional; conditions: Mus musculus
P388 [5] = experiment: Increase in the life span of mice with P388 leukemia after the administration of the highest non toxic dose (1 mg/kg); format: functional; conditions: Mus musculus
P388 [6] = experiment: Increase in the life span of mice with P388 leukemia after the administration of the highest non toxic dose (0.5 mg/kg); format: functional, Mus musculus

In the case of `CCOC(=O)Nc1cc2c(c(N)n1)N=C(c1ccccc1)CN2`, the IC50 (L1210 [1]) is reported as 4.7 nM, the Increase (P388 [2]) is reported as 51% and the MI0.5 (L1210 [3]) is reported as 2.8 nM.

For `CCOC(=O)Nc1cc2c(c(N)n1)N=C(c1ccccc1)[C@@H](C)N2`, the IC50 (L1210 [1]) was 17 nM, the ILS at 30 mg/kg (P388 [4]) was 88% and the MI0.5 (L1210 [3]) was 27 nM.

Work on `CCOC(=O)Nc1cc2c(c(N)n1)N=C(c1ccccc1)C(C)N2` (configuration not stated) yielded an IC50 (L1210 [1]) of 0.2 nM, an ILS at 1 mg/kg (P388 [5]) of 71% and an MI0.5 (L1210 [3]) of 0.58 nM.

`CCOC(=O)Nc1cc2c(c(N)n1)N=C(c1ccccc1)[C@H](C)N2` [MIVOBULIN] showed an IC50 (L1210 [1]) of 0.094 nM, an Increase (P388 [6]) of 64% and an MI0.5 (L1210 [3]) of 0.14 nM.
